This is an account of results in ChEMBL document CHEMBL5608163, “Structure modification of anoplin for fighting resistant bacteria” (Eur J Med Chem, 2024).

Values after ≈ are worked out from the molar mass of the structure shown. Square brackets hold non-standard residues; d marks the D form. Peptide text beside a SMILES is read from it. Gly(N(CH2)2(3-indolyl)) = O=C(O)CNCCc1c[nH]c2ccccc12; N(1-naphthylmethyl)Gly = O=C(O)CNCc1cccc2ccccc12; N(iPr)Gly = CC(C)NCC(=O)O; NBuGly = CCCCNCC(=O)O; βAla = NCCC(=O)O Bounds are passed on as bounds.

In general, MIC refers to the least concentration at which growth counts as inhibited.

In data set [1] the test system is Escherichia coli. Put plainly: Antibacterial activity against Escherichia coli ATCC 25922 assessed as reduction in bacterial cell growth incubated for 18 hrs by two fold serial microdilution method. Format: functional.
Another data set concerns Klebsiella pneumoniae. Put plainly: Antibacterial activity against Klebsiella pneumoniae ATCC 700603 assessed as reduction in bacterial cell growth incubated for 18 hrs by two fold serial microdilution method. Format: functional. In general terms: In broth dilution the organism is exposed to a series of concentrations in liquid medium.
For a further data set, the system named is Pseudomonas aeruginosa. Briefly: Antibacterial activity against Pseudomonas aeruginosa ATCC 27853 assessed as reduction in bacterial cell growth incubated for 18 hrs by two fold serial microdilution method. The data set is classed as functional.
Data set [2] concerns Staphylococcus epidermidis. Put plainly: Antibacterial activity against Staphylococcus epidermidis ATCC 12228 assessed as reduction in bacterial cell growth incubated for 18 hrs by two fold serial microdilution method. The data set is classed as functional.
For data set [3], the system named is Staphylococcus aureus. Put plainly: Antibacterial activity against Staphylococcus aureus ATCC 25923 assessed as reduction in bacterial cell growth incubated for 18 hrs by two fold serial microdilution method. Format: functional.
For data set [4], the system named is Erythrocyte. Briefly: Hemolytic activity in mouse Red blood cells incubated for 1 hr. The data set is classed as toxicity, cell-based.
The next data set has as its system Acinetobacter baumannii. Put plainly: Antibacterial activity against Acinetobacter baumannii ATCC 19606 assessed as inhibition in bacterial growth incubated for 20 to 24 hrs by CLSI based broth microdilution method. Format: functional. Conditions: time 20-24 hrs.
Data set [5] deals with Erythrocyte. Put plainly: Hemolytic activity in mouse RBC. The data set is classed as toxicity, cell-based.
Data set [6] has as its system Escherichia coli. Briefly: Antimicrobial activity against Escherichia coli assessed as reduction in microbial growth by broth micro-dilution method. Format: functional.
The subject of data set [7] is Staphylococcus aureus. Put plainly: Antimicrobial activity against Staphylococcus aureus assessed as reduction in microbial growth by broth microdilution method. Format: functional.

For the molecule `CC[C@H](C)[C@H](NC(=O)[C@H](CCCNC(=N)N)NC(=O)CCNC(=O)[C@H](CC(C)C)NC(=O)[C@H](CC(C)C)NC(=O)CN)C(=O)N[C@@H](CCCCN)C(=O)N[C@H](C(=O)N[C@@H](CC(C)C)C(=O)N[C@@H](CC(C)C)C(N)=O)[C@@H](C)O` (H-GLL[βAla]RIKTLL-NH2), the MIC in the data set on Escherichia coli [1] was 128 µM (≈ 140 µg/mL); in the data set on Klebsiella pneumoniae, greater than 128 µM; in the data set on Pseudomonas aeruginosa, 32 µM (≈ 35.1 µg/mL); in data set [2], 64 µM (≈ 70.2 µg/mL); with Staphylococcus aureus [3] it was greater than 128 µM; in the data set with Acinetobacter baumannii, greater than 128 µM. In the data set with Erythrocyte [4], this molecule showed an HC10 greater than 256 µM.

As for `CC[C@H](C)[C@H](NC(=O)[C@H](CCCNC(=N)N)NC(=O)[C@H](CCCCN)NC(=O)CCNC(=O)[C@H](CC(C)C)NC(=O)CN)C(=O)N[C@@H](CCCCN)C(=O)N[C@H](C(=O)N[C@@H](CC(C)C)C(=O)N[C@@H](CC(C)C)C(N)=O)[C@@H](C)O` (H-GL[βAla]KRIKTLL-NH2), the MIC with Escherichia coli [1] was greater than 128 µM; with Klebsiella pneumoniae it was greater than 128 µM; in the data set on Pseudomonas aeruginosa, 32 µM (≈ 35.6 µg/mL); in data set [2], greater than 128 µM; in the data set on Staphylococcus aureus [3] it was greater than 128 µM; in the data set with Acinetobacter baumannii, greater than 128 µM. In addition, in the data set on Erythrocyte [4], the HC10 was greater than 256 µM.

`CC[C@H](C)[C@H](NC(=O)[C@H](CCCNC(=N)N)NC(=O)[C@H](CCCCN)NC(=O)[C@H](CC(C)C)NC(=O)[C@H](CC(C)C)NC(=O)CNCCc1c[nH]c2ccccc12)C(=O)N[C@@H](CCCCN)C(=O)N[C@H](C(=O)N[C@@H](CC(C)C)C(=O)N[C@@H](CC(C)C)C(N)=O)[C@@H](C)O` (H-[Gly(N(CH2)2(3-indolyl))]LLKRIKTLL-NH2) came in with an HC10 with Erythrocyte [5] greater than 50 µM. The MIC in the data set with Escherichia coli [6] came to 25 µM; in the data set on Staphylococcus aureus [7], 50 µM.

On to `CC[C@H](C)[C@H](NC(=O)[C@H](CCCNC(=N)N)NC(=O)[C@H](CCCCN)NC(=O)[C@H](CC(C)C)NC(=O)[C@H](CC(C)C)NC(=O)CNCc1cccc2ccccc12)C(=O)N[C@@H](CCCCN)C(=O)N[C@H](C(=O)N[C@@H](CC(C)C)C(=O)N[C@@H](CC(C)C)C(N)=O)[C@@H](C)O` (H-[N(1-naphthylmethyl)Gly]LLKRIKTLL-NH2), for which the HC10 with Erythrocyte [5] is greater than 50 µM. In addition, the values for the MIC with Escherichia coli [6] and in the data set on Staphylococcus aureus [7] were 12.5 µM and 25 µM, respectively.

In turn, `CC[C@H](C)[C@H](NC(=O)[C@H](CCCNC(=N)N)NC(=O)[C@H](CCCCN)NC(=O)[C@H](CC(C)C)NC(=O)[C@H](CC(C)C)NC(=O)CNC(C)C)C(=O)N[C@@H](CCCCN)C(=O)N[C@H](C(=O)N[C@@H](CC(C)C)C(=O)N[C@@H](CC(C)C)C(N)=O)[C@@H](C)O` (H-[N(iPr)Gly]LLKRIKTLL-NH2) yielded an HC10 with Erythrocyte [5] greater than 50 µM. Further, the MIC in the data set with Escherichia coli [6] and in the data set with Staphylococcus aureus [7] was greater than 100 µM in each case.

Regarding `CCCCNCC(=O)N[C@@H](CC(C)C)C(=O)N[C@@H](CC(C)C)C(=O)N[C@@H](CCCCN)C(=O)N[C@@H](CCCNC(=N)N)C(=O)N[C@H](C(=O)N[C@@H](CCCCN)C(=O)N[C@H](C(=O)N[C@@H](CC(C)C)C(=O)N[C@@H](CC(C)C)C(N)=O)[C@@H](C)O)[C@@H](C)CC` (H-[NBuGly]LLKRIKTLL-NH2), the HC10 with Erythrocyte [5] is greater than 50 µM. In addition, the MIC was 100 µM in the data set on Escherichia coli [6] and greater than 100 µM with Staphylococcus aureus [7].

Turning to `CC[C@H](C)[C@H](NC(=O)[C@H](CCCNC(=N)N)NC(=O)[C@H](CCCCN)NC(=O)[C@H](CC(C)C)NC(=O)[C@H](CC(C)C)NC(=O)CCN)C(=O)N[C@@H](CCCCN)C(=O)N[C@H](C(=O)N[C@@H](CC(C)C)C(=O)N[C@@H](CC(C)C)C(N)=O)[C@@H](C)O` (H-[βAla]LLKRIKTLL-NH2), the MIC was found to be 32 µM (≈ 37.4 µg/mL) with Escherichia coli [1]; 128 µM (≈ 149 µg/mL) with Klebsiella pneumoniae; 8 µM (≈ 9.34 µg/mL) in the data set on Pseudomonas aeruginosa; 8 µM (≈ 9.34 µg/mL) in data set [2]; 128 µM (≈ 149 µg/mL) in the data set on Staphylococcus aureus [3]; 128 µM (≈ 149 µg/mL) in the data set on Acinetobacter baumannii. Also, in the data set on Erythrocyte [4], the HC10 is greater than 256 µM.

`CC[C@H](C)[C@H](NC(=O)[C@H](CCCNC(=N)N)NC(=O)[C@H](CCCCN)NC(=O)[C@H](CC(C)C)NC(=O)[C@H](CC(C)C)NC(=O)CCN)C(=O)N[C@@H](CCCCN)C(=O)NCCC(=O)N[C@@H](CC(C)C)C(=O)N[C@@H](CC(C)C)C(N)=O` (H-[βAla]LLKRIK[βAla]LL-NH2): the MIC in the data set with Escherichia coli [1] was 64 µM (≈ 72.8 µg/mL); in the data set on Klebsiella pneumoniae it was 64 µM (≈ 72.8 µg/mL); in the data set on Pseudomonas aeruginosa it was 64 µM (≈ 72.8 µg/mL); in data set [2] it was 64 µM (≈ 72.8 µg/mL); in the data set on Staphylococcus aureus [3], 128 µM (≈ 146 µg/mL); in the data set on Acinetobacter baumannii, greater than 128 µM. The same molecule returned an HC10 in the data set on Erythrocyte [4] greater than 256 µM.
